From ChEMBL document CHEMBL1201862, “PubChem BioAssay data set” (2004)
The source made the active and inactive calls. Rule as the data show it, for most assays here: actives have a measured IC50 and inactives only a lower limit.

Assays:
[1] = tested on: Streptococcus sp. 'group A'; test: growth inhibition of control SK(-) GAS strain, dose response, counter-screen for streptokinase expression inhibitor project, luminescence, kanamycin, BacTiterGlo, confirmation (AID 1900); type: functional, organism-based
Streptococcus = test: Group A Streptococcus viability loss, dose response, counter-screen for streptokinase expression inhibitor project, luminescence, BacTiterGlo (AID 1915); type: functional, organism-based;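 also: potency for reduction of bacterial viability or growth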
Caspase-3 = biological target: T1, Caspase-3 (Homo sapiens, UniProt P42574); type: functional;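 also: Dose-response selectivity test against caspase-3 for candidate inhibitors of sentrin-specific proteases (SENPs)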
T1 sequence (P42574 whole entry): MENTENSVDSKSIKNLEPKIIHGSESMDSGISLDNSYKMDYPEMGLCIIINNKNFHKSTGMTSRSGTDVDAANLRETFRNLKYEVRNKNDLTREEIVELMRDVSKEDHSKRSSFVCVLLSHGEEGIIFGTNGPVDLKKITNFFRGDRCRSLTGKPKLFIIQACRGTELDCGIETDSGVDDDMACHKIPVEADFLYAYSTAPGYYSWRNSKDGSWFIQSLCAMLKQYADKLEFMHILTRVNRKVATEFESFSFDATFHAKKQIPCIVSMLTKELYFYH

[2] = biological target: T2, Sentrin-specific protease 6 (Homo sapiens, UniProt Q9GZR1); type: functional;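 also: Luminescence-based dose-response confirmatory assay of SENP6 inhibition, following up an ultra-high-throughput screen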
T2 sequence (Q9GZR1 whole entry): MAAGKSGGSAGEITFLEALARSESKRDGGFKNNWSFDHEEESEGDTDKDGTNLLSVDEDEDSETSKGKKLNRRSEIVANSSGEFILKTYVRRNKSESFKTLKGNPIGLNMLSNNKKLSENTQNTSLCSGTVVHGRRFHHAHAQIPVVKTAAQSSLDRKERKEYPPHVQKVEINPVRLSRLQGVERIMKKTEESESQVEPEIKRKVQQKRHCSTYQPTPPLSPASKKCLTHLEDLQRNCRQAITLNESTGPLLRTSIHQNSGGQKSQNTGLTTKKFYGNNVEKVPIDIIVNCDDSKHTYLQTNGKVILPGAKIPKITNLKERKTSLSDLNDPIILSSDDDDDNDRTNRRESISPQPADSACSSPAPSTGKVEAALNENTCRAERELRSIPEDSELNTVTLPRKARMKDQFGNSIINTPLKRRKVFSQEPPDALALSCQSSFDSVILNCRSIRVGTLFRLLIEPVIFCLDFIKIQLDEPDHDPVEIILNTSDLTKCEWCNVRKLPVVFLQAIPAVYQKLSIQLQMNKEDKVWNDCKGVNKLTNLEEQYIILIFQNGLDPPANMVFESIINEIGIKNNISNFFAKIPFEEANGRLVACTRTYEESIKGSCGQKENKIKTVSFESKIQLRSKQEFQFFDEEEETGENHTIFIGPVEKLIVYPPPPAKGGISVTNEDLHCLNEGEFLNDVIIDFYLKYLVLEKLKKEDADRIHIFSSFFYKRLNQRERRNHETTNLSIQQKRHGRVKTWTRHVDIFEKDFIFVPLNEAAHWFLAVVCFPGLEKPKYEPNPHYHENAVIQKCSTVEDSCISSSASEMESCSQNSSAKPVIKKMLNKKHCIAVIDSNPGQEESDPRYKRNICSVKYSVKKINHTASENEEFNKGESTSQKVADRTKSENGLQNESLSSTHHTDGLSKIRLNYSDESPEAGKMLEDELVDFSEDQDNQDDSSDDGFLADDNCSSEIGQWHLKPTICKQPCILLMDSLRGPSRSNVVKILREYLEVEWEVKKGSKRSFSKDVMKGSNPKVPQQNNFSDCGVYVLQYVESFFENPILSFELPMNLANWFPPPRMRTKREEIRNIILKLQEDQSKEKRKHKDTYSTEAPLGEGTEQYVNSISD

[3] = biological target: T3, Sentrin-specific protease 8 (Homo sapiens, UniProt Q96LD8); type: functional;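 also: luminescence read-out of SENP8 inhibition, dose-response confirmation following an ultra-high-throughput screen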
T3 sequence (Q96LD8 whole entry): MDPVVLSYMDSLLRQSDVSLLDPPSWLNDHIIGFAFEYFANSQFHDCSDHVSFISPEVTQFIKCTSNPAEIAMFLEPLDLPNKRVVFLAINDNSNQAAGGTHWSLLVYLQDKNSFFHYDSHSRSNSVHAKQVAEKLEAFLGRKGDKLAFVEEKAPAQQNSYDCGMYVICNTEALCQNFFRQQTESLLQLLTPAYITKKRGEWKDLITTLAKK

[4] = biological target: T4, Apoptotic protease-activating factor 1 (Homo sapiens, UniProt O14727); type: functional
T4 sequence (O14727 whole entry): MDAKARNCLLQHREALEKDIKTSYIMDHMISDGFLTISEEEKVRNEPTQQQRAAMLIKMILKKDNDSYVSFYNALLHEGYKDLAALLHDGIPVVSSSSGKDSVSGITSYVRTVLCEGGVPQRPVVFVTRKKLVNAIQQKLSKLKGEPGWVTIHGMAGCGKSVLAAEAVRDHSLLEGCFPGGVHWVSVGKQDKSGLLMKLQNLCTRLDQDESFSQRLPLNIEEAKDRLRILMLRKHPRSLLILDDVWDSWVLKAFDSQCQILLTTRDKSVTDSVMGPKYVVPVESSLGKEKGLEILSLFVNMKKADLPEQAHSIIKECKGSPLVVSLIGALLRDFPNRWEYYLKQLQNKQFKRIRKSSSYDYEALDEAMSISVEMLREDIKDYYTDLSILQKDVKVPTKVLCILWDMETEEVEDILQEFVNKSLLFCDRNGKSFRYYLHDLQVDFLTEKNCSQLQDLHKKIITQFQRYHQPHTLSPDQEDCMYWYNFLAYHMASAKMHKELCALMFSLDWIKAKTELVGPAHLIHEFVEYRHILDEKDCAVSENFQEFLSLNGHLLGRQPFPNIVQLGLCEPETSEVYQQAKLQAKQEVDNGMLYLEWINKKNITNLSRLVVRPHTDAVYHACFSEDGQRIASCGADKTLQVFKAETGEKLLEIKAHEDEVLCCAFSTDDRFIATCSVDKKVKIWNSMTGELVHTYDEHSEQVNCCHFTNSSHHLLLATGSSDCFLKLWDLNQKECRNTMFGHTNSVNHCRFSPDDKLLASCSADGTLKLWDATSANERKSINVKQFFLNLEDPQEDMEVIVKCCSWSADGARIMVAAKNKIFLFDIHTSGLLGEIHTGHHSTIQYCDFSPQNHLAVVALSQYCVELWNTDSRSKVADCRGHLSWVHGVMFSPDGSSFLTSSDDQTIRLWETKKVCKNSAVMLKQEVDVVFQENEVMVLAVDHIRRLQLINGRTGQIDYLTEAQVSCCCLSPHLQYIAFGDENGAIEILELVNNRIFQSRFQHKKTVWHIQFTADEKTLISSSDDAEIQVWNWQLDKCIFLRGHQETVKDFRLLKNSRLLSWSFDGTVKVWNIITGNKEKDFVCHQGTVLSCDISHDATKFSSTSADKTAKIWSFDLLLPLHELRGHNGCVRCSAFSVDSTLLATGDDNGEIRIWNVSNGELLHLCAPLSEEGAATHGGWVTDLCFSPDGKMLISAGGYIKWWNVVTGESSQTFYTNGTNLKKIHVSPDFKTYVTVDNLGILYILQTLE

Clc1ccc(C2=CSC3=Nc4cccc5cccc(c45)N23)cc1
active: EC50 [1] 4.17 µM | EC50 (Streptococcus) 17.1 µM | IC50 (Caspase-3) 7.93 µM | IC50 [2] 1.89 µM | IC50 [3] 2.04 µM | IC50 [4] 17.9 µM
